In article PMC8761492 (Life Science Alliance, 2022):

Test system: SARS-CoV-2 B.1.1.7
Test: microbe, parasite or virus in culture
Format: cell-based
Conditions: Severe acute respiratory syndrome coronavirus 2, Caco-2, pretreated 2 h, 24 h, mean ± SEM

Q: For `CCC(CC)COC(=O)[C@H](C)N[P@](=O)(OC[C@H]1O[C@@](C#N)(c2ccc3c(N)ncnn23)[C@H](O)[C@@H]1O)Oc1ccccc1` [Remdesivir], which IC50 is on record?
A: 23 nM
